Here are results for 17 compounds from patent US20260265233A1, “BENZOTHIOPHENE DERIVATIVES AS RXFP1 AGONISTS” (BRISTOL-MYERS SQUIBB COMPANY, priority 2021, published 2026).

SMILES strings stand for the structures.

The assay addresses T1, human RXFP1 (Homo sapiens, UniProt Q9HBX9).
T1 construct: expressed in transfected cells
T1 sequence (Q9HBX9 1-757): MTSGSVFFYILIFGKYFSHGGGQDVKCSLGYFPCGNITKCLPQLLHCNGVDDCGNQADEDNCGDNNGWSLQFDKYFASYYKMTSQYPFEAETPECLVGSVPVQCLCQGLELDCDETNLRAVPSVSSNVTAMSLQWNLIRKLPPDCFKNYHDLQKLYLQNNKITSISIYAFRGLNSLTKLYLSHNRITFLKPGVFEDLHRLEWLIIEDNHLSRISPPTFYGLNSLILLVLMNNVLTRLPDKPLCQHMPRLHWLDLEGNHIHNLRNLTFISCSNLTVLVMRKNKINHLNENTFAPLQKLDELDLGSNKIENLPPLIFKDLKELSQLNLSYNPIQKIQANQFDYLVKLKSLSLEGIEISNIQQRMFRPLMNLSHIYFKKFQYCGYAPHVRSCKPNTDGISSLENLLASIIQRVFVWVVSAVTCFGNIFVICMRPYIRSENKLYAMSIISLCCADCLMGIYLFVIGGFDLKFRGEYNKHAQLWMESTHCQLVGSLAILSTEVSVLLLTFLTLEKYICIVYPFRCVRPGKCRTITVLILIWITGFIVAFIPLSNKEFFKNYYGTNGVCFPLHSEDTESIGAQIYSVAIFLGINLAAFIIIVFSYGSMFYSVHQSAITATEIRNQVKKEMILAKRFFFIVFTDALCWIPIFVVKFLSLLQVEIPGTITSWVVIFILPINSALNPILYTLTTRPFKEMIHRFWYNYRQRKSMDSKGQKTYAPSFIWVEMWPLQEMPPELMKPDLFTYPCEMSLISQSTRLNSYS
The experiment in a line: hRXFP1 HEK293 cAMP assay (HTRF). Type of assay: cell-based. The settings on record: HEK293 cells stably expressing human RXFP1; 30 min at rt; intracellular cAMP by HTRF. An outline of the steps:
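Agonism is measured as cAMP by HTRF, quantified from a standard curve via the 665/590 nm ratio and fitted with a four-parameter logistic equation. Compounds (0.010 nM to 50 μM final, 2% DMSO) were applied for 30 min at rt to human RXFP1-expressing HEK293 cells in assay buffer containing 0.5 mM IBMX.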
Broadly, the EC50 is the concentration needed to bring the measured effect to its halfway point. For `COc1ccc(N2CCC[C@@H](NC(=O)CN(C)C)C2)cc1C(=O)Nc1c(C(=O)Nc2ccc(F)c(C(F)(F)F)c2)sc2cc(C(F)(F)F)ccc12` [Example 209, (R)-3-(5-(3-(2-(dimethylamino)acetamido)piperidin-1-yl)-2-methoxy-benzamido)-N-(4-fluoro-3-(trifluoromethyl)phenyl)-6-(trifluoromethyl) benzo[b] thiophene-2-carboxamide], the 50% effective concentration (EC50) amounted to 1480 nM.
With `COc1ccc(-c2cnn(C)c2C(=O)O)cc1C(=O)Nc1c(C(=O)Nc2ccc(F)c(C(F)(F)F)c2)sc2cc(C(F)(F)F)ccc12` [Example 212, 4-(3-((2-((4-fluoro-3-(trifluoromethyl)phenyl)carbamoyl)-6-(trifluoromethyl)benzo[b]thiophen-3-yl)carbamoyl)-4-methoxyphenyl)-1-methyl-1H-pyrazole-5-carboxylic acid], the EC50 came out at 3330 nM.
With `COc1ccc(C2CCCN(C(C)C)CC2)cc1C(=O)Nc1c(C(=O)Nc2ccc(F)c(C(F)(F)F)c2)sc2cc(C(F)(F)F)ccc12` (centres unmarked) [Example 213, N-(4-fluoro-3-(trifluoromethyl)phenyl)-3-(5-(1-isopropylazepan-4-yl)-2-methoxy-benzamido)-6-(trifluoromethyl) benzo[b] thiophene-2-carboxamide], the midpoint of the response, the EC50, lay at 3360 nM.
Compound `COc1ccc(-c2cc(C(=O)O)ccc2F)cc1C(=O)Nc1c(C(=O)Nc2ccc(F)c(C(F)(F)F)c2)sc2ccc(C(F)(F)F)cc12` [Example 214, 6-fluoro-3′-((2-((4-fluoro-3-(trifluoromethyl)phenyl)carbamoyl)-5-(trifluoromethyl)benzo[b]thiophen-3-yl)carbamoyl)-4′-methoxy-[1,1′-biphenyl]-3-carboxylic acid] returned an EC50 of 2150 nM. This EC50 lies about 1.6-fold lower than the previous one.
As to `COc1ccc(-c2cc(C(=O)O)ccc2F)cc1C(=O)Nc1c(C(=O)Nc2ccc(F)c(C(F)(F)F)c2)sc2cc(C)ccc12` [Example 215, 6-fluoro-3′-((2-((4-fluoro-3-(trifluoromethyl)phenyl)carbamoyl)-6-methylbenzo[b]thiophen-3-yl)carbamoyl)-4′-methoxy-[1,1′-biphenyl]-3-carboxylic acid], the 50% effective concentration (EC50) came to 1430 nM.
Compound `COc1ccc(C(=O)NCCCO)cc1C(=O)Nc1c(C(=O)Nc2ccc(F)c(C(F)(F)F)c2)sc2cc(C(F)(F)F)ccc12` [Example 216, N3-(2-((4-fluoro-3-(trifluoromethyl)phenyl)carbamoyl)-6-(trifluoromethyl)benzo[b]thiophen-3-yl)-N1-(3-hydroxypropyl)-4-methoxy-isophthalamide] displayed an EC50 of 3490 nM. This EC50 lies about 2.4-fold higher than the previous one.
In turn, `COc1ccc(C(=O)NCCO)cc1C(=O)Nc1c(C(=O)Nc2ccc(F)c(C(F)(F)F)c2)sc2cc(C(F)(F)F)ccc12` [Example 217, N3-(2-((4-fluoro-3-(trifluoromethyl)phenyl)carbamoyl)-6-(trifluoromethyl)benzo[b]thiophen-3-yl)-N1-(2-hydroxyethyl)-4-methoxy-isophthalamide] returned an EC50 of 2290 nM.
`COCCNC(=O)c1ccc(OC)c(C(=O)Nc2c(C(=O)Nc3ccc(F)c(C(F)(F)F)c3)sc3cc(C(F)(F)F)ccc23)c1` [Example 218, N3-(2-((4-fluoro-3-(trifluoromethyl)phenyl)carbamoyl)-6-(trifluoromethyl)benzo[b]thiophen-3-yl)-4-methoxy-N1-(2-methoxyethyl) isophthalamide] registered an EC50 of 1130 nM. This EC50 is about 2-fold lower than that of the compound before.
The same measure for `COc1ccc(C(=O)N2CCC[C@@H](O)C2)cc1C(=O)Nc1c(C(=O)Nc2ccc(F)c(C(F)(F)F)c2)sc2cc(C(F)(F)F)ccc12` [Example 219, (R)-N-(4-fluoro-3-(trifluoromethyl)phenyl)-3-(5-(3-hydroxy-piperidine-1-carbonyl)-2-methoxy-benzamido)-6-(trifluoromethyl) benzo[b] thiophene-2-carboxamide]: 1140 nM; for `COc1ccc(C(=O)N(C)C)cc1C(=O)Nc1c(C(=O)Nc2ccc(F)c(C(F)(F)F)c2)sc2cc(C(F)(F)F)ccc12` [Example 220, N3-(2-((4-fluoro-3-(trifluoromethyl)phenyl)carbamoyl)-6-(trifluoromethyl)benzo[b]thiophen-3-yl)-4-methoxy-N1,N1-dimethyl-isophthalamide]: 2530 nM.
In the case of `COc1ccc(C(=O)N2CCOCC2)cc1C(=O)Nc1c(C(=O)Nc2ccc(F)c(C(F)(F)F)c2)sc2cc(C(F)(F)F)ccc12` [Example 221, N-(4-fluoro-3-(trifluoromethyl)phenyl)-3-(2-methoxy-5-(morpholine-4-carbonyl)benzamido)-6-(trifluoromethyl) benzo[b] thiophene-2-carboxamide], the EC50 was determined as 1100 nM.
For the compound `COc1ccc(C(=O)N2CCC3(CC2)COC3)cc1C(=O)Nc1c(C(=O)Nc2ccc(F)c(C(F)(F)F)c2)sc2cc(C(F)(F)F)ccc12` [Example 222, N-(4-fluoro-3-(trifluoromethyl)phenyl)-3-(2-methoxy-5-(2-oxa-7-azaspiro[3.5]nonane-7-carbonyl)benzamido)-6-(trifluoromethyl) benzo[b] thiophene-2-carboxamide], the EC50 is 1610 nM.
Compound `COc1ncc(C(=O)OC(C)(C)C)cc1C(=O)Nc1c(C(=O)Nc2ccc(F)c(C(F)(F)F)c2)sc2cc(C(F)(F)F)ccc12` [Example 223, tert-butyl 5-((2-((4-fluoro-3-(trifluoromethyl)phenyl)carbamoyl)-6-(trifluoromethyl)benzo[b]thiophen-3-yl)carbamoyl)-6-methoxynicotinate] registered an EC50 of 1250 nM.
`COc1ccc(S(=O)(=O)N2CCC(C(C)(C)O)CC2)cc1C(=O)Nc1c(C(=O)Nc2ccc(F)c(C(F)(F)F)c2)sc2cc(C(F)(F)F)ccc12` [Example 225, N-(4-fluoro-3-(trifluoromethyl)phenyl)-3-(5-((4-(2-hydroxypropan-2-yl)piperidin-1-yl)sulfonyl)-2-methoxy-benzamido)-6-(trifluoromethyl) benzo[b] thiophene-2-carboxamide] gave an EC50 of 1060 nM.
`COc1cc(C)c(C(=O)N2CC3(C2)CS(=O)(=O)C3)cc1C(=O)Nc1c(C(=O)Nc2ccc(F)c(C(F)(F)F)c2)sc2cc(C(F)(F)F)ccc12` [Example 226, 3-(5-(2,2-dioxido-2-thia-6-azaspiro[3.3]heptane-6-carbonyl)-2-methoxy-4-methylbenzamido)-N-(4-fluoro-3-(trifluoromethyl)phenyl)-6-(trifluoromethyl) benzo[b] thiophene-2-carboxamide] displayed a concentration giving a half-maximal response (EC50) of 1760 nM.
`COc1ccc(C(=O)NCCS(C)(=O)=O)cc1C(=O)Nc1c(C(=O)Nc2ccc(F)c(C(F)(F)F)c2)sc2cc(C(F)(F)F)ccc12` [Example 232, N3-(2-((4-fluoro-3-(trifluoromethyl)phenyl)carbamoyl)-6-(trifluoromethyl)benzo[b]thiophen-3-yl)-4-methoxy-N1-(2-(methylsulfonyl)ethyl) isophthalamide]: it took 4840 nM to reach a half-maximal effect (EC50).
The same measure for `COc1ncc(N2CC3(COC3)C2)cc1C(=O)Nc1c(C(=O)Nc2ccc(F)c(C(F)(F)F)c2)sc2cc(C(F)(F)F)ccc12` [Example 233, N-(2-((4-fluoro-3-(trifluoromethyl)phenyl)carbamoyl)-6-(trifluoromethyl)benzo[b]thiophen-3-yl)-2-methoxy-5-(2-oxa-6-azaspiro[3.3]heptan-6-yl)nicotinamide]: 4650 nM.
